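Cells were grown in 96-well plates and exposed to each compound for 48 hours at five concentrations; endpoints were interpolated linearly between bracketing concentrations, or set to the highest concentration if not reached. GI50: concentration for 50% inhibition of growth. TGI is the concentration that stops growth completely.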
How the values were obtained:
Test in all cases: inhibition of tumour cell growth, NCI panel, 48 h
[1] = tested on: OVCAR-3 ovarian
[2] = tested on: RPMI-8226 leukemia
[3] = tested on: M14 melanoma
[4] = tested on: COLO 205 colon
[5] = tested on: HL-60(TB) leukemia
[6] = tested on: 786-0 renal
[7] = tested on: HCT-15 colon
[8] = tested on: SW-620 colon
[9] = tested on: SK-MEL-28 melanoma
[10] = tested on: NCI-H522 lung
[11] = tested on: HT29 colon
[12] = tested on: U251 CNS
[13] = tested on: LOX IMVI melanoma
[14] = tested on: MDA-MB-231 breast
[15] = tested on: EKVX NSCLC
[16] = tested on: IGROV1 ovarian
[17] = tested on: TK-10 renal
[18] = tested on: MCF7 breast
[19] = tested on: UO-31 renal
[20] = tested on: NCI-H226 lung
[21] = tested on: NCI-H460 lung
[22] = tested on: UACC-62 melanoma
[23] = tested on: SF-268 CNS
[24] = tested on: UACC-257 melanoma
[25] = tested on: SK-MEL-5 melanoma
[26] = tested on: CCRF-CEM leukemia
[27] = tested on: A549 NSCLC
[28] = tested on: SF-295 CNS
[29] = tested on: K-562 leukemia
[30] = tested on: CAKI-1 renal
[31] = tested on: OVCAR-5 ovarian
[32] = tested on: MOLT-4 leukemia
[33] = tested on: OVCAR-4 ovarian
[34] = tested on: HOP-92 NSCLC
[35] = tested on: NCI/ADR-RES ovarian
[36] = tested on: SN12C renal
[37] = tested on: KM12 colon
[38] = tested on: SK-MEL-2 melanoma
[39] = tested on: MDA-MB-435
[40] = tested on: SF-539 CNS
[41] = tested on: OVCAR-8 ovarian
[42] = tested on: NCI-H23 lung
[43] = tested on: BT-549 breast
[44] = tested on: SR leukemia
[45] = tested on: HS 578T breast
[46] = tested on: SK-OV-3 ovarian
[47] = tested on: HCT-116 colon
[48] = tested on: HCC-2998 colon
[49] = tested on: DU-145 prostate
[50] = tested on: PC-3 prostate
[51] = tested on: HOP-62 NSCLC
[52] = tested on: MALME-3M melanoma
[53] = tested on: RXF 393 renal
[54] = tested on: SNB-75 CNS
[55] = tested on: ACHN renal
[56] = tested on: A498 renal
[57] = tested on: SNB-19 CNS

## c1ccc2c(c1)nc1n2sc2nc3ccccc3n21
[1]
  TGI: > 100 µM
[2]
  TGI: > 100 µM
[3]
  TGI: > 100 µM
[4]
  TGI: > 100 µM
[5]
  TGI: > 100 µM
[6]
  TGI: > 100 µM
[7]
  TGI: > 100 µM
[8]
  TGI: > 100 µM
[9]
  TGI: > 100 µM
[10]
  TGI: > 100 µM
[11]
  TGI: > 100 µM
[12]
  TGI: > 100 µM
[13]
  TGI: > 100 µM
[14]
  TGI: > 100 µM
[15]
  TGI: > 100 µM
[16]
  TGI: > 100 µM
[17]
  TGI: > 100 µM
[18]
  TGI: > 100 µM
[19]
  TGI: > 100 µM
[20]
  TGI: > 100 µM
[21]
  TGI: > 100 µM
[22]
  TGI: 79 µM
[23]
  TGI: > 100 µM
[24]
  TGI: > 100 µM
[25]
  TGI: > 100 µM
[26]
  TGI: > 100 µM
[27]
  TGI: > 100 µM
[28]
  TGI: > 100 µM
[29]
  TGI: > 100 µM
[30]
  TGI: > 100 µM
[31]
  TGI: > 100 µM
[32]
  TGI: > 100 µM
[33]
  TGI: > 100 µM
[34]
  TGI: > 100 µM
[35]
  TGI: > 100 µM
[36]
  TGI: > 100 µM
[37]
  TGI: > 100 µM
[38]
  TGI: > 100 µM
[39]
  TGI: > 100 µM
[40]
  TGI: > 100 µM
[41]
  TGI: > 100 µM
[42]
  TGI: > 100 µM
[43]
  TGI: > 100 µM
[44]
  TGI: > 100 µM
[45]
  TGI: > 100 µM
[46]
  TGI: > 100 µM
[47]
  TGI: > 100 µM
[48]
  TGI: > 100 µM
[49]
  TGI: > 100 µM
[50]
  TGI: > 100 µM

## O=c1c2cc(F)ccc2sc2c(N3CCNCC3)nc3ccccc3c12
[1]
  GI50: 1.66 µM
  TGI: 3.09 µM
[2]
  GI50: 1.77 µM
  TGI: 3.77 µM
[3]
  GI50: 1.78 µM
  TGI: 3.27 µM
[4]
  GI50: 1.75 µM
  TGI: 4.03 µM
[5]
  GI50: 1.9 µM
  TGI: 3.72 µM
[6]
  GI50: 1.45 µM
  TGI: 2.93 µM
[7]
  GI50: 1.41 µM
  TGI: 2.85 µM
[51]
  GI50: 1.61 µM
  TGI: 3.44 µM
[8]
  GI50: 1.51 µM
  TGI: 3.01 µM
[9]
  GI50: 1.75 µM
  TGI: 3.17 µM
[10]
  GI50: 1.86 µM
  TGI: 3.72 µM
[52]
  GI50: 1.64 µM
  TGI: 3.22 µM
[11]
  GI50: 1.64 µM
  TGI: 3.35 µM
[12]
  GI50: 1.57 µM
  TGI: 3.42 µM
[13]
  GI50: 1.59 µM
  TGI: 3.02 µM
[14]
  GI50: 1.39 µM
  TGI: 2.78 µM
[15]
  GI50: 1.55 µM
  TGI: 2.98 µM
[16]
  GI50: 1.5 µM
  TGI: 3.02 µM
[17]
  GI50: 1.69 µM
  TGI: 3.24 µM
[18]
  GI50: 1.7 µM
  TGI: 3.27 µM
[19]
  GI50: 1.37 µM
  TGI: 2.71 µM
[20]
  GI50: 1.82 µM
  TGI: 3.48 µM
[21]
  GI50: 1.49 µM
  TGI: 2.99 µM
[22]
  GI50: 1.69 µM
  TGI: 3.09 µM
[23]
  GI50: 1.55 µM
  TGI: 3.18 µM
[24]
  GI50: 1.99 µM
  TGI: 3.87 µM
[25]
  GI50: 1.76 µM
  TGI: 3.18 µM
[27]
  GI50: 1.65 µM
  TGI: 3.54 µM
[53]
  GI50: 1.29 µM
  TGI: 2.65 µM
[54]
  GI50: 1.43 µM
  TGI: 2.8 µM
[28]
  GI50: 1.75 µM
  TGI: 3.17 µM
[30]
  GI50: 1.59 µM
  TGI: 2.93 µM
[31]
  GI50: 1.67 µM
  TGI: 3.08 µM
[32]
  GI50: 1.7 µM
  TGI: 3.56 µM
[55]
  GI50: 1.56 µM
  TGI: 2.89 µM
[33]
  GI50: 1.74 µM
  TGI: 3.46 µM
[34]
  GI50: 0.867 µM
  TGI: 2.22 µM
[35]
  GI50: 1.69 µM
  TGI: 3.22 µM
[36]
  GI50: 1.59 µM
  TGI: 3.04 µM
[37]
  GI50: 1.72 µM
  TGI: 3.34 µM
[38]
  GI50: 2.01 µM
  TGI: 4 µM
[39]
  GI50: 1.65 µM
  TGI: 3.05 µM
[40]
  GI50: 1.63 µM
  TGI: 3.05 µM
[41]
  GI50: 1.82 µM
  TGI: 4.08 µM
[42]
  GI50: 1.78 µM
  TGI: 3.27 µM
[43]
  GI50: 7.76 µM
  TGI: 20.9 µM
[56]
  GI50: 1.44 µM
  TGI: 2.91 µM
[57]
  GI50: 1.61 µM
  TGI: 3.04 µM
[44]
  GI50: 1.54 µM
  TGI: 4.14 µM
[45]
  GI50: 1.53 µM
  TGI: 3.31 µM
[47]
  GI50: 1.59 µM
  TGI: 3.01 µM
[48]
  GI50: 1.65 µM
  TGI: 3.05 µM
[49]
  GI50: 1.69 µM
  TGI: 3.12 µM
[50]
  GI50: 1.61 µM
  TGI: 3.1 µM

## C(#Cc1cnccn1)/C=C\C#Cc1cnccn1
[1]
  GI50: 7.14 µM
  TGI: 28.4 µM
[2]
  GI50: 8.49 µM
  TGI: 43.8 µM
[3]
  GI50: 1.72 µM
  TGI: 3.86 µM
[5]
  GI50: 24.1 µM
  TGI: > 100 µM
[6]
  GI50: 10.7 µM
  TGI: 29 µM
[7]
  GI50: 2.74 µM
  TGI: 10.6 µM
[8]
  GI50: 2.87 µM
  TGI: 6.88 µM
[10]
  GI50: 2.4 µM
  TGI: 18.1 µM
[13]
  GI50: 1.65 µM
  TGI: 10.5 µM
[14]
  GI50: 4.4 µM
  TGI: 20.7 µM
[15]
  GI50: 3.69 µM
  TGI: 16 µM
[16]
  GI50: 33.1 µM
  TGI: > 100 µM
[18]
  GI50: 14.1 µM
  TGI: > 100 µM
[19]
  GI50: 36 µM
  TGI: > 100 µM
[20]
  GI50: 23.3 µM
  TGI: 68.1 µM
[21]
  GI50: 19.4 µM
  TGI: > 100 µM
[22]
  GI50: 10.4 µM
  TGI: 22.3 µM
[23]
  GI50: 22.8 µM
  TGI: > 100 µM
[24]
  GI50: 7.43 µM
  TGI: 27.1 µM
[25]
  GI50: 19.8 µM
  TGI: 39.9 µM
[26]
  GI50: 2.67 µM
  TGI: > 100 µM
[27]
  GI50: 15.6 µM
  TGI: 42.2 µM
[53]
  GI50: 13 µM
  TGI: 38.6 µM
[28]
  GI50: 15 µM
  TGI: 32.1 µM
[29]
  GI50: 4.18 µM
  TGI: > 100 µM
[30]
  GI50: 2.14 µM
  TGI: 6.92 µM
[31]
  GI50: 16.4 µM
  TGI: 31.7 µM
[32]
  GI50: 11.4 µM
  TGI: > 100 µM
[55]
  GI50: 16 µM
  TGI: 40 µM
[34]
  GI50: 31.1 µM
  TGI: 83.9 µM
[35]
  GI50: 7.46 µM
  TGI: 44.3 µM
[36]
  GI50: 13.6 µM
  TGI: 29.9 µM
[37]
  GI50: 3.43 µM
  TGI: 22.4 µM
[38]
  GI50: 41.8 µM
  TGI: > 100 µM
[39]
  GI50: 7.72 µM
  TGI: 33.1 µM
[40]
  GI50: 15.4 µM
  TGI: 46.1 µM
[41]
  GI50: 12.5 µM
  TGI: > 100 µM
[42]
  GI50: 1.65 µM
  TGI: 3.79 µM
[43]
  GI50: 12 µM
  TGI: 37.4 µM
[56]
  GI50: 27.8 µM
  TGI: 50.7 µM
[44]
  GI50: 3.54 µM
  TGI: > 100 µM
[45]
  GI50: 31.6 µM
  TGI: > 100 µM
[48]
  GI50: 3.63 µM
  TGI: 11.5 µM
[49]
  GI50: 19.2 µM
  TGI: 72 µM
[50]
  GI50: 29.7 µM
  TGI: 97.3 µM
